The source of these data is patent US20230104283A1, “JNK INHIBITOR, AND PHARMACEUTICAL COMPOSITION AND USE THEREOF” (WUHAN LL SCIENCE AND TECHNOLOGY DEVELOPMENT CO. , LTD, priority 2019, published 2023).

Assay [1] deals with T1, JNK1 kinase (Homo sapiens, UniProt P45983).
T1 construct: purchased Carna Biosciences 04-163
As to the kind of experiment: JNK1 activity screening (time-resolved fluorometric HTRF kinase assay). As to conditions: enzymatic assay, activity level. Type of assay: biochemical. As to the method:
JNK1 activity screening. JNK1 activity was detected using a 96-well (Cisbio, 66PL96025) time-resolved fluorometric assay. The JNK1 assay was conducted in the following assay buffer: 10 mM MgCl2 (Sigma, M1028), 1 mM MnCl2 (Sigma, M1787), 1 mM DTT (Sigma, D0632) and 1× Enzymatic buffer/kinase (Cisbio, 62EZBFDC). By using the assay buffer, 3 μL of 0.1 ng/μL JNK1 kinase (Carna Biosciences, 04-163) was added to a 96-well microplate, and then 4 μL of a compound diluted appropriately (with a DMSO content of 2.5%) was added. The resulting mixture was incubated at room temperature for 0.5 h. To start the reaction, the assay buffer was used to mix 0.003 μM ATP (Aladdin, A7699) and 30 μM substrate ATF2-GST fusion (Cisbio, 64CUS000AFPEB), and 3 μL of the mixed solution was added to the microplate. The resulting mixture was incubated at room temperature for 2.5 h. HTRF detection buffer ([…], 62SDBRDD) was used then to prepare a mixture of 5 μg/mL MAb Anti GST-XL665 (Cisbio, 61GSTXLA) and 0.045 μg/mL PAb Anti-phospho ATF2-K (Cisbio, 61P12KAZ), and 10 μL of the mixture was added to the plate to terminate the reaction. After incubation for about 12 h, the plate was read on a Perkin-Elmer Envision reader.

Assay [2] concerns RAW264.7 phosphorylated c-Jun (Ser63). As to the kind of experiment: RAW264.7 phosphorylated c-Jun whole cell assay. Type of assay: cell-based. As to conditions: Mus musculus; cytological assay, activity level; lipopolysaccharide-activated RAW264.7 cells, phospho-c-Jun (Ser63) ELISA. As to the method:
RAW264.7 (ATCC TIB-71) cells were purchased from BeNa Culture Collection and maintained in a high-glucose DMEM medium (Gibco) containing 10% fetal bovine serum (Gibco) and 1% penicillin-streptomycin (Gibco). All cells were cultured at 37° C. in 95% air and 5% CO2. All cells were seeded into 120 μL of cell culture medium in a 96-well plate at a density of 2×10^5 cells per well. The stock solution of compound (15 mM) was serially diluted in DMSO (Sigma) and further diluted in growth medium, and it was then added at 15 μL per well as a 10× concentrated solution, well mixed with the cells and incubated with the cells for 30 min. Concentration of the compound vehicle (DMSO) in each well was 0.2%. After incubation for 30 min, the cells were activated with […] lipopolysaccharide (Sigma). Lipopolysaccharide was added to the growth medium as a 10× concentrated solution at 15 μL per well. The cell plate was incubated for 1 h, and then all the medium was removed. The level of C-Jun protein with phosphorylation of serine at site 63 was measured using the whole cell lysate kit-phosphorylated C-Jun assay (PathScan® Phospho-c-Jun (Ser63) Sandwich ELISA Kit) (CST, 7145C) according to the manufacturer's instructions.

What is called IC50 is the concentration that inhibits the measured activity by half.

Each structure is given as a SMILES string.

T1 sequence (P45983 whole entry): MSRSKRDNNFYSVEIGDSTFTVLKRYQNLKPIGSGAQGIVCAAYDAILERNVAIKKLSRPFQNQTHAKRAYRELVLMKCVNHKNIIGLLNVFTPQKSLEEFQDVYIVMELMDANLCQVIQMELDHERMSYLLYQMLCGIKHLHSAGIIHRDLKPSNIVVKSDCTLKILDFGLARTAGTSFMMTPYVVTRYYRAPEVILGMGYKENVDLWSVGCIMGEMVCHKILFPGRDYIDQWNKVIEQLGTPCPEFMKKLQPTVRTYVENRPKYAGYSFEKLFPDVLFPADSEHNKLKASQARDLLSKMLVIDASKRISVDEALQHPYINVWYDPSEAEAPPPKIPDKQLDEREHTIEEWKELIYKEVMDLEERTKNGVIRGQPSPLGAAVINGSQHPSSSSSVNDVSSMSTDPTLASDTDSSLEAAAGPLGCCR

Regarding `C[C@@H]1CC[C@@H](Nc2nc(NC(C)(C)C)ncc2N)C[C@H]1O` [Compound T063, (1R,2R,5R)-5-((5-amino-2-(tert-butylamino)pyrimidin-4-yl)amino)-2-methylcyclohexan-1-ol], the IC50 in assay [1] and in assay [2] was over 1000 nM in each case.

For `COc1ccc(Nc2ncc(C(N)=O)c(N[C@@H]3CC[C@@H](C)[C@H](O)C3)n2)cc1` [Compound T010, 4-(((1R,3R,4R)-3-hydroxy-4-methylcyclohexyl)amino)-2-((4-methoxyphenyl)amino) pyrimidine-5-carboxamide], the half-inhibitory concentration (IC50) in assay [1] and in assay [2] was under 100 nM in each case.

As for `C[C@@H]1CC[C@@H](Nc2nc(NC(C)(C)C)ncc2C#N)C[C@H]1O` [Compound T001A, 2-(tert-butylamino)-4-(((1R,3R,4R)-3-hydroxy-4-methylcyclohexyl)amino) pyrimidine-5-carbonitrile], the IC50 in assay [1] and in assay [2] was 100 to 500 nM throughout.

In the case of `C[C@@H]1CC[C@@H](Nc2cc(NC3CC3)ncc2C(N)=O)C[C@H]1O` [Compound T058, 6-(cyclopropylamino)-4-(((1R,3R,4R)-3-hydroxy-4-methylcyclohexyl)amino) nicotinamide], the IC50 in assay [1] and in assay [2] was over 1000 nM throughout.

Turning to `C[C@@H]1CC[C@@H](Nc2cc(NC(C)(C)C)ncc2C(N)=O)C[C@H]1O` [Compound T045, 6-(tert-butylamino)-4-(((1R,3R,4R)-3-hydroxy-4-methylcyclohexyl)amino) nicotinamide], the IC50 in assay [1] and in assay [2] was over 1000 nM throughout.

Take `C[C@@H]1CC[C@@H](Nc2nc(NC(C)(C)C)ncc2F)C[C@H]1O` [Compound T012, (1R,2R,5R)-5-((2-(tert-butylamino)-5-fluoropyrimidin-4-yl)amino)-2-methylcyclohexan-1-ol]: the 50% inhibitory concentration (IC50) in assay [1] and in assay [2] was over 1000 nM in each case.

Consider `C[C@@H]1CC[C@@H](Nc2nc(NC(C)(C)C)ncc2C(=O)N2CC2)C[C@H]1O` [Compound T027, Aziridin-1-yl(2-(tert-butylamino)-4-(((1R, 3R,4R)-3-hydroxy-4-methylcyclohexyl)amino)pyrimidin-5-yl)methanone], for which the IC50 was 500 to 1000 nM in assay [1] and over 1000 nM in assay [2].

For `CC(C)(C)Nc1ncc(C(N)=O)c(NC2CCCNC2)n1` (centres unmarked) [Compound T025, 2-(tert-butylamino)-4-(piperidin-3-ylamino)pyrimidine-5-carboxamide], the IC50 in assay [1] is under 100 nM; in assay [2], over 1000 nM.

For the molecule `C[C@@H]1CC[C@@H](Nc2nc(NC(C)(C)C)ncc2CF)C[C@H]1O` [Compound T030, (1R,2R,5R)-5-((2-(tert-butylamino)-5-(fluoromethyl)pyrimidin-4-yl)amino)-2-methylcyclohex-1-ol], the IC50 in assay [1] and in assay [2] was over 1000 nM throughout.

With `CC(C)C(=O)c1cnc(NC(C)(C)C)nc1N[C@@H]1CC[C@@H](C)[C@H](O)C1` [Compound T070, 1-(2-(tert-butylamino)-4-(((1R,3R,4R)-3-hydroxy-4-methylcyclohexyl)amino)pyrimidin-5-yl)-2-methylpropan-1-one], the IC50 in assay [1] is 500 to 1000 nM; in assay [2], over 1000 nM.

As for `C[C@@H]1CC[C@@H](Nc2cc(NC3CC(O)C3)ncc2C(N)=O)C[C@H]1O` (stereo partly drawn) [Compound T051, 4-(((1R,3R,4R)-3-hydroxy-4-methylcyclohexyl)amino)-6-((3-hydroxycyclobutyl)amino)nicotinamide], the concentration for half-maximal inhibition (IC50) in assay [1] is 500 to 1000 nM; in assay [2], over 1000 nM.

In the case of `C[C@@H]1CC[C@@H](Nc2nc(OC(C)(C)C)ncc2C(N)=O)C[C@H]1O` [Compound T043, 2-(tert-butoxy)-4-(((1R,3R,4R)-3-hydroxy-4-methylcyclohexyl)amino) pyrimidine-5-carboxamide], the 50% inhibitory concentration (IC50) in assay [1] was 500 to 1000 nM; in assay [2] it was over 1000 nM.

For `C[C@@H]1CC[C@@H](Nc2nc(N3CCNC(=O)C3)ncc2C(N)=O)C[C@H]1O` [Compound T023, 4-(((1R,3R,4R)-3-hydroxy-4-methylcyclohexyl)amino)-2-(3-oxopiperazin-1-yl)pyrimidine-5-carboxamide], the IC50 in assay [1] was 500 to 1000 nM; in assay [2], over 1000 nM.

Regarding `C[C@@H]1CC[C@@H](Nc2cc(NC(C)(C)F)ncc2C(N)=O)C[C@H]1O` [Compound T057, 6-((2-fluoropropan-2-yl)amino)-4-(((1R, 3R,4R)-3-hydroxy-4-methylcyclohexyl)amino)nicotinamide], the IC50 in assay [1] and in assay [2] was over 1000 nM throughout.

Consider `C[C@@H]1CC[C@@H](Nc2nc(NC(C)(C)C)ncc2Cl)C[C@H]1O` [Compound T013, (1R,2R,5R)-5-((2-(tert-butylamino)-5-chloropyrimidin-4-yl)amino)-2-methylcyclohexan-1-ol], for which the values for the concentration for half-maximal inhibition (IC50) in assay [1] and in assay [2] were 500 to 1000 nM and over 1000 nM, respectively.

In the case of `CC(=O)c1cnc(NC(C)(C)C)nc1N[C@@H]1CC[C@@H](C)[C@H](O)C1` [Compound T067, 1-(2-(tert-butylamino)-4-(((1R,3R,4R)-3-hydroxy-4-methylcyclohexyl)amino)pyrimidin-5-yl)ethan-1-one], the IC50 in assay [1] and in assay [2] was 100 to 500 nM throughout.

In the case of `CC(=O)c1cnc(NC(C)(C)C(F)(F)F)nc1N[C@@H]1CC[C@@H](C)[C@H](O)C1` [Compound T071, 1-(4-(((1R,3R,4R)-3-hydroxy-4-methylcyclohexyl)amino)-2-((1,1,1-trifluoro-2-methylpropan-2-yl)amino)pyrimidin-5-yl)ethan-1-one], the IC50 was 500 to 1000 nM in assay [1] and over 1000 nM in assay [2].

With `C[C@@H]1CC[C@@H](Nc2cc(NC3CCC(O)CC3)ncc2C(N)=O)C[C@H]1O` (stereo partly drawn) [Compound T052, 4-(((1R,3R,4R)-3-hydroxy-4-methylcyclohexyl)amino)-6-((4-hydroxycyclohexyl)amino) nicotinamide], the 50% inhibitory concentration (IC50) is 500 to 1000 nM in assay [1] and over 1000 nM in assay [2].

Regarding `C[C@@H]1CC[C@@H](Nc2nc(NC(C)(C)C)ncc2-n2cncn2)C[C@H]1O` [Compound T035, (1R,2R,5R)-5-((2-(tert-butylamino)-5-(1H-1,2,4-triazol-1-yl)pyrimidin-4-yl)amino)-2-methylcyclohexan-1-ol], the figures for the half-maximal inhibitory concentration (IC50) in assay [1] and in assay [2] were 100 to 500 nM and 500 to 1000 nM, respectively.

Turning to `C[C@@H]1CC[C@@H](Nc2cc(NC3CCCC3O)ncc2C(N)=O)C[C@H]1O` (stereo partly drawn) [Compound T055, 4-(((1R,3R,4R)-3-hydroxy-4-methylcyclohexyl)amino)-6-((2-hydroxycyclopentyl)amino)nicotinamide], the IC50 in assay [1] and in assay [2] was over 1000 nM throughout.

Take `CC(C)(C)Nc1ncc(C(N)=O)c(N2CC(C(C)(C)O)C2)n1` [Compound T020, 2-(tert-butylamino)-4-(3-(2-hydroxypropan-2-yl)azetidin-1-yl) pyrimidine-5-carboxamide]: the values for the IC50 in assay [1] and in assay [2] were 100 to 500 nM and 500 to 1000 nM, respectively.

As for `C[C@@H]1CC[C@@H](Nc2nc(NC(C)(C)C)ncc2/C(N)=N\O)C[C@H]1O` [Compound T002, (E)-2-(tert-butylamino)-N′-hydroxy-4-(((1R,3R,4R)-3-hydroxy-4-methylcyclohexyl)amino)pyrimidine-5-carboximidamide], the values for the half-inhibitory concentration (IC50) in assay [1] and in assay [2] were under 100 nM and 100 to 500 nM, respectively.

Regarding `C[C@@H]1CC[C@@H](Nc2nc(O[C@H]3CC[C@H](O)CC3)ncc2C(N)=O)C[C@H]1O` [Compound T039, 4-(((1R,3R,4R)-3-hydroxy-4-methylcyclohexyl)amino)-2-(((1R, 4R)-4-hydroxycyclohexyl)oxy) pyrimidine-5-carboxamide], the IC50 was 100 to 500 nM in assay [1] and over 1000 nM in assay [2].

With `COc1cnc(NC(C)(C)C)nc1N[C@@H]1CC[C@@H](C)[C@H](O)C1` [Compound T029, (1R,2R,5R)-5-((2-(tert-butylamino)-5-methoxypyrimidin-4-yl)amino)-2-methylcyclohex-1-ol], the IC50 in assay [1] and in assay [2] was over 1000 nM each time.

Turning to `CC(C)(C)Nc1ncc(C(N)=O)c(N2CCCC(CO)C2)n1` (centres unmarked) [Compound T018, 2-(tert-butylamino)-4-(3-(hydroxymethyl)piperidin-1-yl)pyrimidine-5-carboxamide], the IC50 fell in the range of 100 to 500 nM in assay [1] and 500 to 1000 nM in assay [2].
